This is an account of results in article PMC8159961, “Exploring protein hotspots by optimized fragment pharmacophores” (Nature Communications, 2021).

The target in one test is T1, human 5-HT7b receptor (Homo sapiens, UniProt P34969).
T1 construct: expressed in transfected cells
As to the kind of experiment: GPCR radioligand binding assay, [3H]-5-CT displacement, HEK293 membranes. The conditions noted are these: for 5-HT7 % Inhibition by plate position: 10 µM; for %inh 5-HT7 exp_1: replicate exp_1; for %inh 5-HT7 exp_2: replicate exp_2; for %inh 5-HT7 average: average of exp_1 and exp_2.

The target in a further test is T2, human 5-HT6 receptor (Homo sapiens, UniProt P50406).
T2 construct: expressed in transfected cells
Nature of the test: GPCR radioligand binding assay, [3H]-LSD displacement, HEK293 membranes. The conditions noted are these: for 5-HT6 % Inhibition by plate position: 10 µM; for %inh 5-HT6 average: average of exp_1 and exp_2; for %inh 5-HT6 corrected*: average, values below 0 and above 100% were set as 0 and 100; for %inh 5-HT6 exp_1: replicate exp_1; for %inh 5-HT6 exp_2: replicate exp_2.

Another test has as its target T3, human 5-HT1A receptor (Homo sapiens, UniProt P08908).
T3 construct: expressed in transfected cells
T3 sequence (P08908 1-422): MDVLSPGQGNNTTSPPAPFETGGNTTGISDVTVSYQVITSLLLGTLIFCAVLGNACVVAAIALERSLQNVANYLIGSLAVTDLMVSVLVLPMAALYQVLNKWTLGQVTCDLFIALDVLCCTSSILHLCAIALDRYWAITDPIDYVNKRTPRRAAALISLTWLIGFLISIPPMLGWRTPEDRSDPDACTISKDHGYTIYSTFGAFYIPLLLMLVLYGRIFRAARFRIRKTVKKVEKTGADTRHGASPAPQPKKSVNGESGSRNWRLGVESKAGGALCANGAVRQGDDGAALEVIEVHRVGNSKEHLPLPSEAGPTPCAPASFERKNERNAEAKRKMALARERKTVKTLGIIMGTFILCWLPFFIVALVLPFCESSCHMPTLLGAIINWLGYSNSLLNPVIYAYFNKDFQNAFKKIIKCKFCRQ
As to the kind of experiment: GPCR radioligand binding assay, [3H]-8-OH-DPAT displacement, HEK293 membranes. The conditions noted are these: for %inh 5-HT1A average: average of exp_1 and exp_2; for %inh 5-HT1A corrected*: average, values below 0 and above 100% were set as 0 and 100; for %inh 5-HT1A exp_1: replicate exp_1; for %inh 5-HT1A exp_2: replicate exp_2; for 5-HT1A % Inhibition by plate position: 10 µM.

Molecules are shown by their SMILES.

T2 sequence (P50406 whole entry): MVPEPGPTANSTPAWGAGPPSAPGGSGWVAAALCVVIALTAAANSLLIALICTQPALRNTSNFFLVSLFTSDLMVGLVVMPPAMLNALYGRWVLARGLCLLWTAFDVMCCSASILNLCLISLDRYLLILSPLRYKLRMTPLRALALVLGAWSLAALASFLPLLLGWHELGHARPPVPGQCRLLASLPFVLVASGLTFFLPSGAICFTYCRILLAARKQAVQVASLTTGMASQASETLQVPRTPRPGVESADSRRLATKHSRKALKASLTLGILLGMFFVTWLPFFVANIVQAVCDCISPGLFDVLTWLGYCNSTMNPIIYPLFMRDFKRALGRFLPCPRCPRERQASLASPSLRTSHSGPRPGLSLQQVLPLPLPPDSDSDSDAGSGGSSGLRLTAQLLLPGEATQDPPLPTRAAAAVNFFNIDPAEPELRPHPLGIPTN
T1 sequence (P34969 1-432): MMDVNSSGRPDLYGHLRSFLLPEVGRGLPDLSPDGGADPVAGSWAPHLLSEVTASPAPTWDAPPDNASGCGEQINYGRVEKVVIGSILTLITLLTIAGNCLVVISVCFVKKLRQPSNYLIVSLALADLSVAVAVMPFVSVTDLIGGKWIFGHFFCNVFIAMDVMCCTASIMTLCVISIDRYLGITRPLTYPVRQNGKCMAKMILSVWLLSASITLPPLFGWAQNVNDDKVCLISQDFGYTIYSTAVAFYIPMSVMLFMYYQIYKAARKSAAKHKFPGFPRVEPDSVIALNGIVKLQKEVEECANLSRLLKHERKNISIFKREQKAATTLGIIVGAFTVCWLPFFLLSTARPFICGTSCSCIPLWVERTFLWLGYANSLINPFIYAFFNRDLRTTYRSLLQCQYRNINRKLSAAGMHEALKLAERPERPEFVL

Regarding `COc1ccc(C2=CCNCC2)cc1` [G1], at human 5-HT7b receptor, the “5-HT7 % Inhibition by plate position” value worked out at 19%, the “%inh 5-HT7 exp_1” value was determined as 17% and the “%inh 5-HT7 exp_2” value stood at 20%. On human 5-HT6 receptor, the “5-HT6 % Inhibition by plate position” value worked out at 49%, the “%inh 5-HT6 average” value was 49%, the “%inh 5-HT6 corrected*” value amounted to 49% and the “%inh 5-HT6 exp_1” value stood at 49%. The “%inh 5-HT6 exp_2” value at human 5-HT6 receptor amounted to 49%. Besides, at human 5-HT1A receptor, the “%inh 5-HT1A average” value is reported as 17%, the “%inh 5-HT1A corrected*” value came to 17%, the “%inh 5-HT1A exp_1” value came out at 14% and the “%inh 5-HT1A exp_2” value stood at 20%.

In the case of `Cn1c(CO)nc2ccccc21` [G2], on human 5-HT7b receptor, the “5-HT7 % Inhibition by plate position” value was 5%, the “%inh 5-HT7 exp_1” value was determined as 10% and the “%inh 5-HT7 exp_2” value is reported as 0.167%. On human 5-HT6 receptor, the “5-HT6 % Inhibition by plate position” value stood at 37%, the “%inh 5-HT6 average” value is 37%, the “%inh 5-HT6 corrected*” value is recorded as 37% and the “%inh 5-HT6 exp_1” value came out at 37%. Also, on human 5-HT6 receptor, the “%inh 5-HT6 exp_2” value was found to be 38%. Besides, at human 5-HT1A receptor, the “5-HT1A % Inhibition by plate position” value is recorded as 0%, the “%inh 5-HT1A average” value was -5%, the “%inh 5-HT1A exp_1” value is 12% and the “%inh 5-HT1A exp_2” value is -22%.

Turning to `CN(C)c1cc(CN)ccn1` [G3], on human 5-HT7b receptor, the “5-HT7 % Inhibition by plate position” value was found to be 0%, the “%inh 5-HT7 average” value was -18%, the “%inh 5-HT7 exp_1” value is -1.11% and the “%inh 5-HT7 exp_2” value is reported as -35%. Also, at human 5-HT6 receptor, the “5-HT6 % Inhibition by plate position” value was 16%, the “%inh 5-HT6 average” value is given as 16%, the “%inh 5-HT6 corrected*” value came to 16% and the “%inh 5-HT6 exp_1” value was determined as 16%. In addition, the “%inh 5-HT6 exp_2” value on human 5-HT6 receptor is reported as 16%. In addition, at human 5-HT1A receptor, the “%inh 5-HT1A average” value is 11%, the “%inh 5-HT1A corrected*” value is recorded as 11%, the “%inh 5-HT1A exp_1” value is 13% and the “%inh 5-HT1A exp_2” value is 10%.

Turning to `O=C(NC1CC1)c1ccccc1O` [G4], on human 5-HT7b receptor, the “5-HT7 % Inhibition by plate position” value was 0%, the “%inh 5-HT7 average” value is -12%, the “%inh 5-HT7 exp_1” value came out at 1.81% and the “%inh 5-HT7 exp_2” value is -25%. Also, at human 5-HT6 receptor, the “5-HT6 % Inhibition by plate position” value is reported as 24%, the “%inh 5-HT6 average” value came to 24%, the “%inh 5-HT6 corrected*” value turned out to be 24% and the “%inh 5-HT6 exp_1” value is reported as 28%. The “%inh 5-HT6 exp_2” value at human 5-HT6 receptor worked out at 20%. Moreover, on human 5-HT1A receptor, the “%inh 5-HT1A average” value came to 1.71%, the “%inh 5-HT1A corrected*” value is 1.71%, the “%inh 5-HT1A exp_1” value is 3.42% and the “%inh 5-HT1A exp_2” value was found to be 0%.

With `c1ccc2sc(N3CCNCC3)nc2c1` [G5], at human 5-HT7b receptor, the “5-HT7 % Inhibition by plate position” value was found to be 28%, the “%inh 5-HT7 exp_1” value came to 32% and the “%inh 5-HT7 exp_2” value amounted to 25%. Besides, at human 5-HT6 receptor, the “5-HT6 % Inhibition by plate position” value came out at 42%, the “%inh 5-HT6 average” value came to 42%, the “%inh 5-HT6 corrected*” value is 42% and the “%inh 5-HT6 exp_1” value is 49%. In addition, the “%inh 5-HT6 exp_2” value on human 5-HT6 receptor was 35%. In addition, at human 5-HT1A receptor, the “%inh 5-HT1A average” value is reported as 83%, the “%inh 5-HT1A corrected*” value was 83%, the “%inh 5-HT1A exp_1” value was found to be 78% and the “%inh 5-HT1A exp_2” value turned out to be 88%.

On to `O=C(O)C1CCCN(C(=O)N2CCCC2)C1` (stereo not drawn) [G6], for which, on human 5-HT7b receptor, the “5-HT7 % Inhibition by plate position” value stood at 8.53%, the “%inh 5-HT7 exp_1” value is recorded as 10% and the “%inh 5-HT7 exp_2” value is reported as 7%. Also, on human 5-HT6 receptor, the “5-HT6 % Inhibition by plate position” value is on record as 27%, the “%inh 5-HT6 average” value was 27%, the “%inh 5-HT6 corrected*” value amounted to 27% and the “%inh 5-HT6 exp_1” value came to 29%. Further, the “%inh 5-HT6 exp_2” value on human 5-HT6 receptor came to 25%. For the same molecule, on human 5-HT1A receptor, the “%inh 5-HT1A average” value was 5%, the “%inh 5-HT1A corrected*” value turned out to be 5%, the “%inh 5-HT1A exp_1” value is recorded as 1% and the “%inh 5-HT1A exp_2” value was 9%.

Consider `O=C1CCN(c2ccncc2)CC1` [G7], for which, on human 5-HT7b receptor, the “5-HT7 % Inhibition by plate position” value was 3.28%, the “%inh 5-HT7 exp_1” value was -1.58% and the “%inh 5-HT7 exp_2” value was determined as 8%. For the same molecule, at human 5-HT6 receptor, the “5-HT6 % Inhibition by plate position” value was determined as 7%, the “%inh 5-HT6 average” value is listed as 7%, the “%inh 5-HT6 corrected*” value came out at 7% and the “%inh 5-HT6 exp_1” value is 7.61%. At human 5-HT6 receptor, the “%inh 5-HT6 exp_2” value was 7%. For the same molecule, on human 5-HT1A receptor, the “%inh 5-HT1A average” value came out at 0.831%, the “%inh 5-HT1A corrected*” value is recorded as 0.831%, the “%inh 5-HT1A exp_1” value is given as -1.88% and the “%inh 5-HT1A exp_2” value turned out to be 3.54%.

Regarding `O=C1CCN(c2ccccn2)CC1` [G8], on human 5-HT7b receptor, the “5-HT7 % Inhibition by plate position” value is recorded as 29%, the “%inh 5-HT7 exp_1” value is listed as 34% and the “%inh 5-HT7 exp_2” value is 24%. Besides, at human 5-HT6 receptor, the “5-HT6 % Inhibition by plate position” value was determined as 7%, the “%inh 5-HT6 average” value is listed as 7%, the “%inh 5-HT6 corrected*” value is listed as 7% and the “%inh 5-HT6 exp_1” value was 0%. Further, the “%inh 5-HT6 exp_2” value at human 5-HT6 receptor is 15%. For the same molecule, on human 5-HT1A receptor, the “5-HT1A % Inhibition by plate position” value was 0%, the “%inh 5-HT1A average” value is reported as -7%, the “%inh 5-HT1A exp_1” value came out at 4% and the “%inh 5-HT1A exp_2” value is listed as -18%.

With `Nc1ccc(-c2ccccc2)cc1C(=O)O` [G9], on human 5-HT7b receptor, the “5-HT7 % Inhibition by plate position” value amounted to 15%, the “%inh 5-HT7 exp_1” value is listed as 16% and the “%inh 5-HT7 exp_2” value is given as 14%. Further, on human 5-HT6 receptor, the “5-HT6 % Inhibition by plate position” value is reported as 37%, the “%inh 5-HT6 average” value amounted to 37%, the “%inh 5-HT6 corrected*” value was 37% and the “%inh 5-HT6 exp_1” value came out at 34%. For the same molecule, on human 5-HT6 receptor, the “%inh 5-HT6 exp_2” value is given as 40%. Also, on human 5-HT1A receptor, the “%inh 5-HT1A average” value was found to be 15%, the “%inh 5-HT1A corrected*” value stood at 15%, the “%inh 5-HT1A exp_1” value is on record as 13% and the “%inh 5-HT1A exp_2” value is given as 18%.

On to `O=C(CN1CCCC1)c1ccccc1Cl` [G10], for which, at human 5-HT7b receptor, the “5-HT7 % Inhibition by plate position” value is reported as 3.47%, the “%inh 5-HT7 exp_1” value is 8% and the “%inh 5-HT7 exp_2” value is -1%. Further, at human 5-HT6 receptor, the “5-HT6 % Inhibition by plate position” value amounted to 19%, the “%inh 5-HT6 average” value is listed as 19%, the “%inh 5-HT6 corrected*” value came to 19% and the “%inh 5-HT6 exp_1” value worked out at 17%. Also, the “%inh 5-HT6 exp_2” value at human 5-HT6 receptor is recorded as 20%. In addition, at human 5-HT1A receptor, the “%inh 5-HT1A average” value was 78%, the “%inh 5-HT1A corrected*” value is listed as 78%, the “%inh 5-HT1A exp_1” value was found to be 77% and the “%inh 5-HT1A exp_2” value is 79%.

As to `CCc1nccn1CC(=O)O` [G11], on human 5-HT7b receptor, the “5-HT7 % Inhibition by plate position” value is recorded as 0%, the “%inh 5-HT7 average” value is listed as -3.32%, the “%inh 5-HT7 exp_1” value is given as -14% and the “%inh 5-HT7 exp_2” value came to 8%. Moreover, at human 5-HT6 receptor, the “5-HT6 % Inhibition by plate position” value came out at 0%, the “%inh 5-HT6 average” value was -2%, the “%inh 5-HT6 corrected*” value is reported as 0% and the “%inh 5-HT6 exp_1” value is on record as -9%. Besides, at human 5-HT6 receptor, the “%inh 5-HT6 exp_2” value was found to be 5%. On human 5-HT1A receptor, the “%inh 5-HT1A average” value came out at 8.43%, the “%inh 5-HT1A corrected*” value stood at 8.43%, the “%inh 5-HT1A exp_1” value is recorded as 3.26% and the “%inh 5-HT1A exp_2” value is recorded as 14%.
